{"source": "patent US20070270448A1", "about": "“Methods of Using and Compositions Comprising a Jnk Inhibitor for the Treatment and Management of Asbestos-Related Diseases and Disorders” (CELGENE CORPORATION, priority 2003, published 2007)", "key": {"[1]": {"test": "Brain-Blood Plasma Distribution In Vivo", "design": "species or system Sprague-Dawley rats", "settings": "rat", "description": "5-Amino-anthra(9,1-cd)isothiazol-6-one was administered intravenously (10 mg/kg) into the veins of Sprague-Dawley rats. After 2 hr, blood samples were obtained from the animals and their vascular systems were perfused with approximately 100 mL of saline to rid their brains of blood. The brains were removed from the animals, weighed, and homogenized in a 50 mL conical tube containing 10 equivalents (w/v) of methanol/saline (1:1) using a Tissue Tearer (Fischer Scientific). The homogenized material was extracted by adding 600 μL of cold methanol to 250 μL of brain homogenate vortexed for 30 sec and subjected to centrifugation for 5 min. After centrifugation, 600 μL of the resulting supernatant was transferred to a clean tube and evaporated at room temperature under reduced pressure to provide a pellet. […] The brain homogenate analysis samples, plasma analysis samples, and standard analysis samples were analyzed and compared using HPLC by injecting 100 μL of a sample onto a 5 μm C-18 Luna column (4.6 mm×150 mm, commercially available from Phenomenex of Torrance, Calif.) and eluting at 1 mL/min with a linear gradient of 30% aqueous acetonitrile containing 0.1% trifluoroacetic acid to 90% aqueous acetonitrile containing 0.1% trifluoroacetic acid over 8 minutes and holding at 90% aqueous acetonitrile containing 0.1% trifluoroacetic acid for 3 min. with absorbance detection at 450 nm. […]"}, "[2]": {"test": "Solubility in aqueous media", "assay_type": "physicochemical"}, "[3]": {"system": "rat ventral mesencephalan neurons", "test": "[3H]Dopamine Cell Culture Assay (6-OHDA neurotoxicity)", "assay_type": "cell-based", "settings": "6-OHDA 30 μM, uptake 22 hrs after exposure", "description": "Cultures of dopaminergic neurons were prepared according to a modification of the procedure described by Raymon and Leslie (J. Neurochem. 62:1015-1024, 1994). Time-mated pregnant rats were sacrificed on embyronic day 14-15 (crown rump length 11-12 mm) and the embryos removed by cesarean section. The ventral mesencephalon, containing the dopaminergic neurons, was dissected from each embryo. Tissue pieces from approximately 48 embryos were pooled and dissociated both enzymatically and mechanically. An aliquot from the resulting cell suspension was counted and the cells were plated in high glucose DMEM/F12 culture medium with 10% fetal bovine serum at a density of 1×10^5 cells/well of a Biocoat poly-D-lysine-coated 96-well plate. The day following plating was considered 1 day in vitro (DIV). Cells were maintained in a stable environment at 37° C., 95% humidity, and 5% CO2. A partial medium change was performed at 3 DIV. […]\n[^3H]Dopamine uptake is used as a measure of the health and integrity of dopaminergic neurons in culture (Prochiantz et al., PNAS 76: 5387-5391, 1979). […] Briefly, cells treated with 6-OHDA in the presence and absence of 5-amino-anthra(9,1-cd)isothiazol-6-one were assessed in the uptake assay 22 hrs after exposure to 6-OHDA. […] Radioactivity was removed and the cultures were washed 3× with ice cold PBS. […]"}}, "data": [{"smiles": "Nc1ccc2snc3c2c1C(=O)c1ccccc1-3", "note": "[5-amino-anthra(9,1-cd)isothiazol-6-one]", "values": [{"measurement": "brain-drug concentration", "setting": "[1]; 10 mg/kg intravenously, 2 hr post-dose", "value": "approximately 65 nmole/g"}, {"measurement": "blood-brain barrier crossing", "setting": "[1]; following intravenous administration", "value": "crosses the blood-brain barrier to a significant extent"}, {"measurement": "solubility in aqueous media", "setting": "[2]", "value": "limited solubility"}, {"measurement": "protection of dopaminergic neurons ([3H]dopamine uptake)", "setting": "[3]", "value": "protects rat ventral mesencephalan neurons from the toxic effects of 6-OHDA"}]}]}
